Assay results from patent US9546153B2, “Bicyclic heterocycle substituted pyridyl compounds useful as kinase modulators” (BRISTOL-MYERS SQUIBB COMPANY, priority 2012, dated 2017).
Where two headings read alike, the source gives them in different places.

Experiments:
[1] = test system: TLR2 induced IL-6 in peripheral blood mononuclear cells (PBMCs); test: PBMC TLR2 Induced IL-6 Assay; assay type: cell-based, human; conditions: human PBMCs, 10 μg/ml lipoteichoic acid for 5 hours, IL-6 by ELISA; for IC50: value without asterisk, read-out: Cell IC50
How it was run: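 Human PBMCs (250000 cells/well) in RPMI with 10% heat-inactivated FCS pre-treated with compound for 30 min at 37° C, then stimulated 5 h with 10 μg/ml lipoteichoic acid. Supernatant IL-6 measured by ELISA and reported as IC50 or EC50.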

[2] = biological target: IRAK4 (Homo sapiens (Human), UniProt Q9NWZ3); test: IRAK4 Inhibition Assay; assay type: biochemical; conditions: ATP 500 μM; IRAK4 0.6 nM; 60 min at room temperature
Sequence of IRAK4 (Q9NWZ3 whole entry, species assumed): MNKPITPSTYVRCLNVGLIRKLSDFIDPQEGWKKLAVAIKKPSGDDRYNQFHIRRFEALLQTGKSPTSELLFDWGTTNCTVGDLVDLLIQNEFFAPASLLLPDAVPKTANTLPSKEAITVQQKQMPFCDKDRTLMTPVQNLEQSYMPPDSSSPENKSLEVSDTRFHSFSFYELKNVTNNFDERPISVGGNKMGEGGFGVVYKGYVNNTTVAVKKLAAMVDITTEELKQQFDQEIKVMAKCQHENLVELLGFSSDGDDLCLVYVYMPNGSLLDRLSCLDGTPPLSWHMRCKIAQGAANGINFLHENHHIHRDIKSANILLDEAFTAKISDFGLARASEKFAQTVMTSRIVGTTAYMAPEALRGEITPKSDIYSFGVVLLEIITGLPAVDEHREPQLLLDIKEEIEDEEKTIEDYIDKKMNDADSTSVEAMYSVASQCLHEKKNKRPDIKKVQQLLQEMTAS
Experimental: The assays were performed in U-bottom 384-well plates. […] The reaction was initiated by the combination of IRAK4 with substrates and test compounds. The reaction was incubated at room temperature for 60 min. and terminated by adding 45 μL of 35 mM EDTA to each sample. The reaction mixture was analyzed on the Caliper LABCHIP® 3000 (Caliper, Hopkinton, Mass.) by electrophoretic separation of the fluorescent substrate and phosphorylated product.

Row | IC50 [2] [nM] | Structure (SMILES) | IC50 [1] [nM] | IC50 ([1]; Homo sapiens, PBMC, 5 h) [nM] | EC50 ([1]; EC50 determinations are indicated with an asterisk, read-out: Cell EC50 (asterisk)) [nM]
1 | 8.6 | Cc1nc2ccc(Nc3cc(NC4CCCC4F)c(C(=O)NC[C@@H](F)C(C)(C)O)cn3)cc2s1 (stereo partly drawn) [Example 349] | 475 | – | –
2 | 5.8 | CC(C)(O)[C@H](F)CNC(=O)c1cnc(Nc2ccc3ncsc3c2)cc1NC1C2CCCC21 (stereo partly drawn) [Example 109] | 454 | – | –
3 | 3.4 | CC(C)(O)[C@H](F)CNC(=O)c1cnc(Nc2ccc3ncsc3c2)cc1NC1CC(CO)C1 (stereo partly drawn) [Example 69] | – | 365 | –
4 | 1.9 | CC1CCCC1Nc1cc(Nc2ccc3ncsc3c2)ncc1C(=O)NC[C@@H](F)C(C)(C)O (stereo partly drawn) [Example 105] | 321 | – | –
5 | 3.1 | CC(C)(F)CNc1cc(Nc2ccn3ncc(F)c3c2)ncc1C(=O)NC[C@@H](F)C(C)(C)O [Example 301] | – | 190 | –
6 | 6.1 | CC(C)CNc1cc(Nc2ccn3nccc3c2)ncc1C(=O)NC[C@@H](F)C(C)(C)O [Example 289] | – | 502 | –
7 | 2.3 | CC(C)(O)[C@H](F)CNC(=O)c1cnc(Nc2ccc3ncc(C(N)=O)cc3n2)cc1NC1CCC1 [Example 444] | – | 55 | –
8 | 15.2 | CC(C)(O)[C@H](F)CNC(=O)c1cnc(Nc2nc3ccnn3cc2F)cc1NC1CCCCC1(F)F (stereo partly drawn) [Example 497] | – | – | 299
9 | 7.2 | CC(C)(O)[C@H](F)CNC(=O)c1cnc(Nc2ccc3nonc3c2)cc1N[C@@H]1CCCC1F (stereo partly drawn) [Example 357] | 399 | – | –
10 | 8.6 | CC(C)(O)[C@H](F)CNC(=O)c1cnc(Nc2ccc3ncsc3c2)cc1N[C@H](CO)c1ccccc1 [Example 63] | – | 632 | –
11 | 1.7 | CCC(O)(CC)[C@H](F)CNC(=O)c1cnc(Nc2ccc3ncsc3c2)cc1NCC(C)(C)F [Example 317] | – | 374 | –
12 | 6.3 | CC(C)(O)[C@H](F)CNC(=O)c1cnc(Nc2ccc3ncsc3c2)cc1Nc1ccc(S(C)(=O)=O)cc1 [Example 382] | – | 491 | –
13 | 3.1 | CC(C)Nc1cc(Nc2ccc3ncsc3c2)ncc1C(=O)N[C@H]1CC[C@H](C(=O)NC2(C#N)CC2)CC1 [Example 213] | – | 403 | –
14 | 4.3 | CC(C)Nc1cc(Nc2ccc3ncsc3c2)ncc1C(=O)NCC(F)(F)C(C)(C)O [Example 171] | – | 571 | –
15 | 3.7 | CC(C)Nc1cc(Nc2ccc3ncsc3c2)ncc1C(=O)NCC[C@@H](C)NC(=O)N(C)c1ccccc1 [Example 208] | – | 647 | –
16 | 3.1 | CC(C)(O)[C@H](F)CNC(=O)c1cnc(Nc2ccc3ncccc3n2)cc1NC1CCOCC1F (stereo partly drawn) [Example 439] | 64 | – | –
17 | 3.4 | CC(CO)Nc1cc(Nc2nc3scnc3cc2F)ncc1C(=O)NC[C@@H](F)C(C)(C)O (stereo partly drawn) [Example 459] | 141 | – | –
18 | 3.7 | CC(C)(O)[C@H](F)CNC(=O)c1cnc(Nc2ccc3ncsc3c2)cc1NC1CCCC1 [Example 33, (R)-6-(benzo[d]thiazol-6-ylamino)-4-(cyclopentylamino)-N-(2-fluoro-3-hydroxy-3-methylbutyl)nicotinamide] | – | 64 | –
19 | 3.1 | CC(C)C(O)[C@H](F)CNC(=O)c1cnc(Nc2ccc3ncsc3c2)cc1N[C@@H]1CCC[C@H]1O (stereo partly drawn) [Example 332] | 791 | – | –
20 | 2 | CC(C)Nc1cc(Nc2ccc3ncsc3c2)ncc1C(=O)N[C@H]1CC[C@H](C(=O)NC(C)C)CC1 [Example 195] | – | 162 | –
21 | 2.4 | CC(C)(O)[C@H](F)CNC(=O)c1cnc(Nc2ccc3ncc(C#N)cc3n2)cc1NC1CCC(F)C1 (stereo partly drawn) [Example 411] | 92 | – | –
22 | 4.3 | CC(C)Nc1cc(Nc2ccc3ncsc3c2)ncc1C(=O)NC[C@@H](F)C(O)C(C)C (stereo partly drawn) [Example 14] | 461 | – | –
23 | 2 | CC(C)(O)[C@H](F)CNC(=O)c1cnc(Nc2ccc3ncc(F)cc3n2)cc1NC1CCOCC1 [Example 428] | – | 52 | –
24 | 8.2 | CC(C)(O)[C@H](F)CNC(=O)c1cnc(Nc2ccc3nsnc3c2)cc1NC1CCCC1 [Example 36] | – | 893 | –
